Test [1] concerns the target T1, UL97 L397R (Human cytomegalovirus, UniProt Q68101, L397R).
T1 construct: PCR reaction to generate the full length UL97; honey bee melittin secretion signal (N); expressed in transfected cells; host or cells: Sf21 insect cells infected with recombinant baculovirus
T1 sequence (Q68101 1-707 L397R): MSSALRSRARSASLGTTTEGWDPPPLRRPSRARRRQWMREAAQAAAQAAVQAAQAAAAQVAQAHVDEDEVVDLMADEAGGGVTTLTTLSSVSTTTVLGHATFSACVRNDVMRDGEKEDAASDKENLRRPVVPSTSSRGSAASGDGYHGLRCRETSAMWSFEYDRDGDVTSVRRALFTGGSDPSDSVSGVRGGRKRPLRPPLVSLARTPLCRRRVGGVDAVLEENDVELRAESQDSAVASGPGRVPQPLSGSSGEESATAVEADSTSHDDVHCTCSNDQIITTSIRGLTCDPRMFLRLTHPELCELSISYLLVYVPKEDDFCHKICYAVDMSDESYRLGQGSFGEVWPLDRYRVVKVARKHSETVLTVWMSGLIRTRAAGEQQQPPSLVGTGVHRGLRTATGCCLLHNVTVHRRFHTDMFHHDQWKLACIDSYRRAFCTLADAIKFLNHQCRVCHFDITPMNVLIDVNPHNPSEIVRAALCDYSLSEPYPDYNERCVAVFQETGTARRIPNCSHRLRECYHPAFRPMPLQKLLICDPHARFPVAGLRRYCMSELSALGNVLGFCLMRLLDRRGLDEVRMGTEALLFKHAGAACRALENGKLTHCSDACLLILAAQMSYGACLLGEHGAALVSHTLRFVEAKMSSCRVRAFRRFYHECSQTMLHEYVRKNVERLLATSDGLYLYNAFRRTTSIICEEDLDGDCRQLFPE
As to the kind of experiment: UL97 autophosphorylation protein kinase assay, L397R. The format is biochemical. Particulars: L397R mutant. The procedure: (§1) Analysis of the autophosphorylation of wild type and mutant UL97 protein species was performed by a standard protein kinase assay as previously described (46). Briefly, purified protein was added to 2× protein kinase buffer (100 mM Tris HCl, pH9.0, 20 mM MgCl2, 10 μM ATP, 4 mM DTT, 2 M NaCl) and 370 KBq [γ^32P] ATP (Amersham), made up to 20 μl with SDW and incubated at 37°C. The reactions were terminated by the addition of 2× SDS sample buffer followed by boiling for 3 minutes. The amount of radiolabelled phosphate incorporated by autophosphorylation was analysed by SDS-PAGE and measured using the Biorad Mulitanalyst. The protein kinase assays were initially performed for 2 to 60 minutes to determine the maximum rate of phosphate incorporation, all assays were then performed at the maximum rate which equated to 5 minutes.
(§2) Enzyme kinetic analysis was performed on the purified wild type and mutant UL97 protein species as above using increasing concentrations of ATP (2 μM to 20 μM). The amount of incorporated radiolabelled phosphate was plotted against the concentration of ATP in a Lineweaver Burke plot to determine the Km for ATP for each UL97 species. […]

Test [2] deals with T2, UL97 D456A (Human cytomegalovirus, UniProt Q68101, D456A).
T2 construct: PCR reaction to generate the full length UL97; honey bee melittin secretion signal (N); made in house; host or cells: Sf21 insect cells, recombinant baculovirus (pMelBac C)
T2 sequence (Q68101 1-707 D456A): T1 sequence (Q68101 1-707 L397R) with R397L, D456A
As to the kind of experiment: UL97 autophosphorylation protein kinase assay, D456A. In kind it is biochemical. As to conditions: D456A mutant. The method, then:
as §1, §2

Where a chain is given by its changes, count along the chain named.

Regarding `CC(C)Nc1nc2cc(Cl)c(Cl)cc2n1[C@H]1O[C@@H](CO)[C@H](O)[C@@H]1O` [maribavir, 5,6-dichloro-2-(isopropylamino)-1-beta-L-ribofuranosyl-1H-benzimidazole], the reduction in autophosphorylation result in test [1] (drug concentrations increased to 100 μM) is listed as “did not exhibit a reduction in autophosphorylation”. Moreover, the effect on autophosphorylation result in test [1] (maribavir 0.5 μM) is recorded as “unaffected”. The half-maximal inhibitory concentration (IC50) in test [2] stood at 34 nM.

Values taken from paper PMC3050433, “The effects of maribavir on the autophosphorylation of ganciclovir resistant mutants of the cytomegalovirus UL97 protein” (Herpesviridae, 2010).
